Source: PubChem BioAssay (NCI)
Several values for one entry are separate records, joined by “and”; a condition that tells them apart may be missing. Identical values can stand only once.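 Where inhibition never reached the appropriate level, the endpoint shown equals the highest concentration tested. Otherwise, values were interpolated linearly from a five-concentration, 48-hour dose response in 96-well plates. Here, GI50 denotes the concentration required for 50% inhibition of growth. TGI denotes the concentration required for complete inhibition of growth.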

How the values were obtained:
Assay in all cases: NCI-60 cell line screen, 48 h
[1] = test system: ACHN renal
[2] = test system: CCRF-CEM leukemia
[3] = test system: COLO 205 colon
[4] = test system: DU-145 prostate
[5] = test system: NCI-H226 lung
[6] = test system: OVCAR-4 ovarian
[7] = test system: PC-3 prostate
[8] = test system: SF-539 CNS
[9] = test system: SK-OV-3 ovarian
[10] = test system: UACC-257 melanoma

Row | SMILES | GI50 [1] | TGI [1] [µM] | GI50 [2] | TGI [2] | GI50 [3] | TGI [3] [µM] | GI50 [4] | TGI [4] [µM] | GI50 [5] [µM] | TGI [5] [µM] | GI50 [6] | TGI [6] [µM] | GI50 [7] [µM] | TGI [7] [µM] | GI50 [8] | TGI [8] [µM] | GI50 [9] | TGI [9] [µM] | GI50 [10] | TGI [10]
1 | COc1cc(N2CCN(C(C)C)CC2)ccc1Nc1nc(Nc2cccc(F)c2C(=O)O)c2cc[nH]c2n1 | > 25 µM | > 25 | > 25000 nM | > 25 µM | > 25 µM | > 25 | > 25 µM | > 25 | > 25 | > 25 | > 25 µM | > 25 | > 25 | > 25 | > 25 µM | > 25 | > 25 µM | > 25 | > 25 µM | > 25 µM
2 | Cc1cc(C(=O)O)c(C)n1-c1cccc(C(=O)O)c1 | > 100 µM | > 100 | > 100000 nM | > 100 µM | > 100 µM | > 100 | > 100 µM | > 100 | > 100 | > 100 | > 100 µM | > 100 | > 100 | > 100 | > 100 µM | > 100 | > 100 µM | > 100 | > 100 µM | > 100 µM
3 | N=C(N)c1ccc(NCCOCCNc2ccc(C(=N)N)cc2)cc1 | 36.1 µM | > 100 | > 100000 nM | > 100 µM | 14.9 µM | 39.5 | 27.4 µM | > 100 | 13.3 | > 100 | 34.1 µM | > 100 | 50.7 | > 100 | 36.8 µM | > 100 | 7.86 µM | 51.7 | > 100 µM | > 100 µM
4 | Cc1cc2nc3cc(C)c(N)cc3[n+](-c3ccccc3)c2cc1N | > 68.2 µM | > 100 | 11200 nM | > 100 µM | 2.55 µM | 14.3 | 7.89 µM | > 100 | 6.23 | > 69.4 | 3.57 µM | > 100 | 3.63 | > 100 | 4.39 µM | > 100 | 24.8 µM | > 100 | 1.85 µM | 12 µM
5 | C[C@]12CC[C@H]3[C@@H](C[C@@H]4SC(Nc5ccccc5)=N[C@@]45CC(O)CC[C@]35C)[C@@H]1CCC2O (stereo not given in full) | 1.71 µM | 3.25 | 1600 nM | 27.1 µM | 2.45 µM | 5.61 | 1.7 µM | 3.62 | 2.4 | 5.57 | 3.13 µM | 15.4 | 2.37 | 5.85 | 1.19 µM | 2.62 | 5.16 µM | 17.9 | 2.54 µM | 6.68 µM
6 | NCCOc1ccccc1/C=C1\c2ccccc2-c2ccc([N+](=O)[O-])cc21 | 1.38 µM | 2.69 | 1080 nM | 2.54 µM | 1.75 µM | 3.44 | 1.03 µM | 2.21 | 1.73 | 3.48 | 1.79 µM | 3.27 | 1.52 | 2.96 | 1.79 µM | 3.18 | 1.7 µM | 3.13 | 1.7 µM | 3.31 µM
7 | Cc1cc(C(=O)NC(CCC(=O)O)C(=O)O)sc1CCC1CNc2nc(N)[nH]c(=O)c2C1 (stereo not given) | 0.0133 µM and 0.0435 µM | > 100 | 12.3 nM and 27.3 nM | > 100 µM | 0.0341 µM and 0.0509 µM | > 100 | < 0.0158 µM and 0.0407 µM | > 100 | < 0.0128 | > 100 | 0.121 µM and 0.167 µM | > 100 | < 0.01 | > 100 | 0.0383 µM and 0.0521 µM | > 100 | 0.0103 µM and 0.0181 µM | > 100 | 0.0722 µM and 0.228 µM | > 100 µM
8 | CCC(=O)Nc1ccccc1C#C/C=C\C#Cc1ccccc1C(F)(F)F | 3.98 µM | > 50 | 2400 nM | > 20 µM | 4.59 µM | > 25.9 | 2.28 µM | 22.3 | 6.91 | > 50 | 14.6 µM | > 50 | 4.08 | > 50 | 4.2 µM | 13.1 | 1.7 µM | > 50 | 7.17 µM | > 45.2 µM
9 | Cc1ccc(C2=C(c3ccc(C)cc3)C3(c4ccc(C)cc4)C4C(=O)c5ccccc5C(=O)C4C2(c2ccc(C)cc2)S3=O)cc1 (stereo not given) | > 100 µM | > 100 | > 100000 nM | > 100 µM | > 100 µM | > 100 | > 100 µM | > 100 | > 100 | > 100 | 45 µM | > 100 | > 100 | > 100 | > 100 µM | > 100 | > 100 µM | > 100 | > 100 µM | > 100 µM
10 | COC(=O)C(CBr)CBr | – | 10.1 | – | 1.83 µM | – | 3 | – | 31.9 | – | 28.1 | – | 8.58 | – | 23 | – | 13.2 | – | 33.8 | – | 12.5 µM
11 | CCN(CC)CCN(Cc1ccc(F)cc1)c1ccc(CO)c(Cl)c1 | 38.2 µM | > 100 | 61700 nM | > 100 µM | 2.2 µM | 5.54 | 9.97 µM | > 73.8 | 0.235 | 0.713 | 4.6 µM | 35.2 | 13.2 | > 92.3 | 48.1 µM | > 100 | 2.96 µM | 13.6 | 12 µM | 27.7 µM
12 | Nc1nc(N)c2c(n1)NC(c1ccccc1)C1CCc3ccccc3C1=N2 (stereo not given) | 4.38 µM | 16.8 | 4470 nM | > 100 µM | 3.07 µM | 10.9 | 4.38 µM | 17.1 | 5.96 | 28.9 | 3.06 µM | 17.1 | 2.82 | 47.7 | 5.81 µM | 18.8 | 10.3 µM | 22.7 | 3.72 µM | 15 µM
13 | COc1ccc(/C=C2\CN(Cc3cn(CCNc4ccnc5cc(Cl)ccc45)nn3)C/C(=C\c3ccc(OC)c(OC)c3)C2=O)cc1OC | 5.25 µM | 19.9 | 2540 nM | > 100 µM | 1.99 µM | 3.9 | 3.48 µM | 11 | 4.04 | 21 | 4.07 µM | > 100 | 3.57 | > 100 | 2.58 µM | 8.14 | 4.66 µM | 24.1 | 4.8 µM | 23.1 µM
14 | COc1cc2ncnc(Nc3ccc4c(cnn4Cc4ccccc4)c3)c2cc1OC | 0.642 µM | > 25 | > 18100 nM | > 25 µM | > 25 µM | > 25 | > 25 µM | > 25 | > 25 | > 25 | > 25 µM | > 25 | > 18.2 | > 25 | > 15.8 µM | > 25 | 0.534 µM | > 25 | > 25 µM | > 25 µM
15 | N#Cc1c(N)nc(N)nc1N[C@H](c1nc2c(F)ccc(Cl)c2c(=O)n1-c1cccnc1)C1CC1 | 3.31 µM | > 100 | 7350 nM | 95.1 µM | 8.74 µM | 25.8 | 11 µM | > 100 | 15.5 | > 100 | 19.4 µM | 87.1 | 2.3 | 29.3 | 3.83 µM | 21 | 2.41 µM | 11.4 | 8.18 µM | > 100 µM
16 | C[n+]1c(-c2ccc(/C=N/NC(=O)c3ccc(C(=O)N/N=C/c4ccc(-c5cn6ccccc6[n+]5C)cc4)cc3)cc2)cn2ccccc21 | 752 µM | > 1000 | 209000 nM | > 50 µM and 353 µM | > 1000 µM | > 1000 | 206 µM | 698 | 124 | 283 | 623 µM | > 1000 | 169 | 306 | 206 µM | 349 | 281 µM | 494 | 182 µM | 97.5 µM and 322 µM
17 | CCCCC(=O)N/N=C/c1c(O)ccc2ccccc12 | 1.38 µM | > 88.6 | 267 nM | 1.28 µM | 2.61 µM | > 27.6 | 2.7 µM | > 100 | 13.7 | > 70.4 | 1.47 µM | > 33.2 | 0.953 | > 57.5 | 2.8 µM | > 44.9 | 3.04 µM | > 100 | 3 µM | > 24.6 µM
18 | CC(=O)C1=C(C)N(C)C2(O)C=CC(=O)C3=C(O)c4ccccc4C(=O)C312 (stereo not given) | 10.8 µM | 28.8 | 1920 nM | > 100 µM | 13.8 µM | 38 | 5.27 µM | 21.8 | 16 | 31.9 | 17.1 µM | 34.2 | 3.42 | 15.9 | 2.76 µM | 6.55 | 6.9 µM | 32.4 | 5.73 µM | > 100 µM
